Data published in patent US11344588B2, “Lactobacillus plantarum CJLP17 having antiviral and immunomodulatory efficacies and composition comprising the same” (CJ CHEILJEDANG CORPORATION, priority 2018, dated 2022).

Tested on: CJLP17 strain
Assay: Antibiotic susceptibility test with antibiotic discs
Format: cell-based, Lactobacillus plantarum
Settings: antibiotic disc on CJLP17 lawn, Mueller Hinton II medium, 37° C., 24 hours
Experimental: The CJLP17 strain was inoculated into a liquid MRS medium and subjected to a static culture at 37° C. for 24 hours. The thus-cultured bacteria were soaked in sterilized cotton swabs and smeared on a solid Mueller Hinton II medium (Difco), and then antibiotic discs were placed on the medium and incubated at 37° C. for 24 hours. Ampicillin, clindamycin, gentamicin, kanamycin, erythromycin, ampicillin/sulbactam, chloramphenicol, and streptomycin discs (Oxoid, UK) were used as antibiotic discs for the antibiotic test.

Point of comparison: CC1(C)S[C@@H]2[C@H](NC(=O)[C@H](N)c3ccccc3)C(=O)N2[C@H]1C(=O)O [Amp10 (Ampicillin), Ampicillin], “Radius of Growth Inhibition Area Centered Around Antibiotics” value 7.5 mm. Against it:
- CCC[C@@H]1C[C@@H](C(=O)N[C@@H]([C@H]2O[C@H](SC)[C@H](O)[C@@H](O)[C@H]2O)[C@H](C)Cl)N(C)C1 [C30 (Clindamycin), Clindamycin] — lower, 7 mm
- [H]/N=C(/N)N[C@H]1[C@H](O)[C@@H](O)[C@H](O[C@@H]2O[C@@H](C)[C@](O)(C=O)[C@H]2O[C@@H]2O[C@@H](CO)[C@H](O)[C@@H](O)[C@@H]2NC)[C@@H](N/C(N)=N\[H])[C@@H]1O [DA2 (Streptomycin), Streptomycin] — lower, 4.5 mm
- CC[C@H]1OC(=O)[C@H](C)[C@@H](O[C@H]2C[C@@](C)(OC)[C@@H](O)[C@H](C)O2)[C@H](C)[C@@H](O[C@@H]2O[C@H](C)C[C@H](N(C)C)[C@H]2O)[C@](C)(O)C[C@@H](C)C(=O)[C@H](C)[C@@H](O)[C@]1(C)O [E15 (Erythromycin), Erythromycin] — higher, 12 mm
- NC[C@H]1O[C@H](O[C@H]2[C@H](O)[C@@H](O[C@H]3O[C@H](CO)[C@@H](O)[C@H](N)[C@H]3O)[C@H](N)C[C@@H]2N)[C@H](O)[C@@H](O)[C@@H]1O [K30 (Kanamycin), Kanamycin] — lower, 1.5 mm
- O=C(N[C@H](CO)[C@H](O)c1ccc([N+](=O)[O-])cc1)C(Cl)Cl [S10 (Chloramphenicol), Chloramphenicol] — lower, 3.5 mm
- Ampicillin/Sulbactam [SAM20 (Ampicillin/Sulbactam)] — lower, 7 mm
- Gentamicin [CN120 (Gentamicin)] — lower, 5 mm
